Results: the supplement of paper PMC10307832

Assays:
Experiment in all cases: relative viability (nuclei count vs DMSO), 5 days (fraction); higher = more cells survive
LCLC-97TM1 = tested on: LCLC-97TM1
How it was run: (§1)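 Medians of duplicate plates are given as relative viability. That measure is the nuclei count in treated wells divided by the count in vehicle wells. Counts were taken on 4× images of lung cancer cell lines in 1536-well plates, 5 days after pin-tool dosing the day after seeding with one drug alone or a fixed anchor-drug dose plus five library-drug doses (not always all listed) in √10 steps.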

NCI-H2023 = tested on: NCI-H2023
How it was run: as §1

HOP-62 = tested on: HOP-62
How it was run: as §1

NCI-H2347 = tested on: NCI-H2347
How it was run: as §1

EMC-BAC-2 = tested on: EMC-BAC-2
How it was run: as §1

EPLC-272H = tested on: EPLC-272H
How it was run: as §1

NCI-H661 = tested on: NCI-H661
How it was run: as §1

NCI-H647 = tested on: NCI-H647
How it was run: as §1

SW 1573 = tested on: SW 1573
How it was run: as §1

LXF-289 = tested on: LXF-289
How it was run: as §1

NCI-H322M = tested on: NCI-H322M
How it was run: as §1

NCI-H2009 = tested on: NCI-H2009
How it was run: as §1

NCI-H1563 = tested on: NCI-H1563
How it was run: as §1

NCI-H727 = tested on: NCI-H727
How it was run: as §1

H3255 = tested on: H3255
How it was run: as §1

PC-14 = tested on: PC-14
How it was run: as §1

NCI-H1650 = tested on: NCI-H1650
How it was run: as §1

NCI-H1993 = tested on: NCI-H1993
How it was run: as §1

NCI-H2085 = tested on: NCI-H2085
How it was run: as §1

SK-LU-1 = tested on: SK-LU-1
How it was run: as §1

NCI-H2342 = tested on: NCI-H2342
How it was run: as §1

NCI-H2126 = tested on: NCI-H2126
How it was run: as §1

NCI-H1915 = tested on: NCI-H1915
How it was run: as §1

NC(=O)Nc1cc(-c2cccc(F)c2)sc1C(=O)N[C@H]1CCCNC1 [AZD7762] + Cc1nc(Nc2ncc(C(=O)Nc3c(C)cccc3Cl)s2)cc(N2CCN(CCO)CC2)n1 [Dasatinib] (partner 0.075 µM)
relative viability (LCLC-97TM1; first compound 0.01 µM): 0.913 | relative viability (LCLC-97TM1; first compound 0.03162 µM): 0.802 | relative viability (LCLC-97TM1; first compound 0.1 µM): 0.778 | relative viability (LCLC-97TM1; first compound 0.3162 µM): 0.572 | relative viability (LCLC-97TM1; first compound 1 µM): 0.447 | relative viability (NCI-H2023; first compound 0.01 µM): 0.513 | relative viability (NCI-H2023; first compound 0.03162 µM): 0.425 | relative viability (NCI-H2023; first compound 0.1 µM): 0.328 | relative viability (NCI-H2023; first compound 0.3162 µM): 0.159 | relative viability (NCI-H2023; first compound 1 µM): 0.0942 | relative viability (HOP-62; first compound 0.01 µM): 0.727 | relative viability (HOP-62; first compound 0.03162 µM): 0.72 | relative viability (HOP-62; first compound 0.1 µM): 0.682 | relative viability (HOP-62; first compound 0.3162 µM): 0.623 | relative viability (HOP-62; first compound 1 µM): 0.341 | relative viability (NCI-H2347; first compound 0.01 µM): 0.36 | relative viability (NCI-H2347; first compound 0.03162 µM): 0.306 | relative viability (NCI-H2347; first compound 0.1 µM): 0.346 | relative viability (NCI-H2347; first compound 0.3162 µM): 0.35 | relative viability (NCI-H2347; first compound 1 µM): 0.253 | relative viability (EMC-BAC-2; first compound 0.01 µM): 0.373 | relative viability (EMC-BAC-2; first compound 0.03162 µM): 0.37 | relative viability (EMC-BAC-2; first compound 0.1 µM): 0.359 | relative viability (EMC-BAC-2; first compound 0.3162 µM): 0.346 | relative viability (EMC-BAC-2; first compound 1 µM): 0.322 | relative viability (EPLC-272H; first compound 0.01 µM): 0.338 | relative viability (EPLC-272H; first compound 0.03162 µM): 0.384 | relative viability (EPLC-272H; first compound 0.1 µM): 0.365 | relative viability (EPLC-272H; first compound 0.3162 µM): 0.3 | relative viability (EPLC-272H; first compound 1 µM): 0.0994 | relative viability (NCI-H661; first compound 0.01 µM): 0.753 | relative viability (NCI-H661; first compound 0.03162 µM): 0.808 | relative viability (NCI-H661; first compound 0.1 µM): 0.575 | relative viability (NCI-H661; first compound 0.3162 µM): 0.468 | relative viability (NCI-H661; first compound 1 µM): 0.296 | relative viability (NCI-H647; first compound 0.01 µM): 0.214 | relative viability (NCI-H647; first compound 0.03162 µM): 0.184 | relative viability (NCI-H647; first compound 0.1 µM): 0.197 | relative viability (NCI-H647; first compound 0.3162 µM): 0.143 | relative viability (NCI-H647; first compound 1 µM): 0.0925 | relative viability (SW 1573; first compound 0.01 µM): 0.576 | relative viability (SW 1573; first compound 0.03162 µM): 0.561 | relative viability (SW 1573; first compound 0.1 µM): 0.45 | relative viability (SW 1573; first compound 0.3162 µM): 0.247 | relative viability (SW 1573; first compound 1 µM): 0.121 | relative viability (LXF-289; first compound 0.01 µM): 0.225 | relative viability (LXF-289; first compound 0.03162 µM): 0.245 | relative viability (LXF-289; first compound 0.1 µM): 0.219 | relative viability (LXF-289; first compound 0.3162 µM): 0.187 | relative viability (LXF-289; first compound 1 µM): 0.211 | relative viability (NCI-H322M; first compound 0.01 µM): 0.258 | relative viability (NCI-H322M; first compound 0.03162 µM): 0.237 | relative viability (NCI-H322M; first compound 0.1 µM): 0.286 | relative viability (NCI-H322M; first compound 0.3162 µM): 0.279 | relative viability (NCI-H322M; first compound 1 µM): 0.256 | relative viability (NCI-H2009; first compound 0.01 µM): 0.334 | relative viability (NCI-H2009; first compound 0.03162 µM): 0.287 | relative viability (NCI-H2009; first compound 0.1 µM): 0.342 | relative viability (NCI-H2009; first compound 0.3162 µM): 0.282 | relative viability (NCI-H2009; first compound 1 µM): 0.181 | relative viability (NCI-H1563; first compound 0.01 µM): 0.451 | relative viability (NCI-H1563; first compound 0.03162 µM): 0.492 | relative viability (NCI-H1563; first compound 0.1 µM): 0.5 | relative viability (NCI-H1563; first compound 0.3162 µM): 0.524 | relative viability (NCI-H1563; first compound 1 µM): 0.419 | relative viability (NCI-H727; first compound 0.01 µM): 0.374 | relative viability (NCI-H727; first compound 0.03162 µM): 0.422 | relative viability (NCI-H727; first compound 0.1 µM): 0.35 | relative viability (NCI-H727; first compound 0.3162 µM): 0.284 | relative viability (NCI-H727; first compound 1 µM): 0.191 | relative viability (H3255; first compound 0.01 µM): 0.347 | relative viability (H3255; first compound 0.03162 µM): 0.307 | relative viability (H3255; first compound 0.1 µM): 0.44 | relative viability (H3255; first compound 0.3162 µM): 0.352 | relative viability (H3255; first compound 1 µM): 0.319 | relative viability (PC-14; first compound 0.01 µM): 0.281 | relative viability (PC-14; first compound 0.03162 µM): 0.254 | relative viability (PC-14; first compound 0.1 µM): 0.211 | relative viability (PC-14; first compound 0.3162 µM): 0.0804 | relative viability (PC-14; first compound 1 µM): 0.0213 | relative viability (NCI-H1650; first compound 0.01 µM): 0.313 | relative viability (NCI-H1650; first compound 0.03162 µM): 0.311 | relative viability (NCI-H1650; first compound 0.1 µM): 0.314 | relative viability (NCI-H1650; first compound 0.3162 µM): 0.264 | relative viability (NCI-H1650; first compound 1 µM): 0.19 | relative viability (NCI-H1993; first compound 0.01 µM): 0.629 | relative viability (NCI-H1993; first compound 0.03162 µM): 0.599 | relative viability (NCI-H1993; first compound 0.1 µM): 0.481 | relative viability (NCI-H1993; first compound 0.3162 µM): 0.574 | relative viability (NCI-H1993; first compound 1 µM): 0.588 | relative viability (NCI-H2085; first compound 0.01 µM): 0.247 | relative viability (NCI-H2085; first compound 0.03162 µM): 0.254 | relative viability (NCI-H2085; first compound 0.1 µM): 0.243 | relative viability (NCI-H2085; first compound 0.3162 µM): 0.201 | relative viability (NCI-H2085; first compound 1 µM): 0.216 | relative viability (SK-LU-1; first compound 0.01 µM): 0.183 | relative viability (SK-LU-1; first compound 0.03162 µM): 0.158 | relative viability (SK-LU-1; first compound 0.1 µM): 0.108 | relative viability (SK-LU-1; first compound 0.3162 µM): 0.126 | relative viability (SK-LU-1; first compound 1 µM): 0.128 | relative viability (NCI-H2342; first compound 0.01 µM): 0.326 | relative viability (NCI-H2342; first compound 0.03162 µM): 0.344 | relative viability (NCI-H2342; first compound 0.1 µM): 0.33 | relative viability (NCI-H2342; first compound 0.3162 µM): 0.309 | relative viability (NCI-H2342; first compound 1 µM): 0.31 | relative viability (NCI-H2126; first compound 0.01 µM): 0.658 | relative viability (NCI-H2126; first compound 0.03162 µM): 0.665 | relative viability (NCI-H2126; first compound 0.1 µM): 0.639 | relative viability (NCI-H2126; first compound 0.3162 µM): 0.648 | relative viability (NCI-H2126; first compound 1 µM): 0.402 | relative viability (NCI-H1915; first compound 0.01 µM): 0.32 | relative viability (NCI-H1915; first compound 0.03162 µM): 0.319 | relative viability (NCI-H1915; first compound 0.1 µM): 0.327 | relative viability (NCI-H1915; first compound 0.3162 µM): 0.335 | relative viability (NCI-H1915; first compound 1 µM): 0.272
